Reference: patent US20240124460A1, “METHODS AND COMPOSITIONS FOR TARGETED PROTEIN DEGRADATION” (Ranok Therapeutics (Hangzhou) Co. Ltd., priority 2020, published 2024)

How the values were obtained:
[1] = system: U-87 MG human glioblastoma; experiment: U87 MG CCK-8 proliferation assay; format: cell-based; conditions: Homo sapiens, U-87 MG, 72 h, U-87 MG cells, read-out: U87MG CCK-8
Summary of the method: (§1)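 Cells grown per ATCC recommendations were treated with 3-fold serial compound dilutions from 20 μM to 1.02 nM. CCK-8 absorbance was converted to % inhibition against DMSO-treated cells, with cell-free medium containing DMSO as the blank.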

MAPK7 = MAPK7 (Homo sapiens, UniProt Q13164); experiment: MAPK7 Western blot protein degradation assay in U-87 MG cells; format: cell-based; parameters: U-87 MG human glioblastoma cells, which express MAPK7; endogenous in cells; host or cells: U-87 MG; conditions: 48 hr
Procedure: U-87 MG human glioblastoma cells were seeded in 6- or 12-well tissue culture plates, and after 1 hr, test compounds were added at various concentrations and incubated at 37° C./5% CO2 for 48 hr. Cells were then washed with cold PBS, aspirated and cold RIPA buffer containing a protease/phosphatase inhibitor cocktail was added to lyse cells. After centrifugation, the total protein concentrations of cell lysates were determined using the BCA protein assay. Samples were normalized for equivalent protein concentrations, 5×SDS-PAGE loading buffer added and denatured at 100° C. for 10 min. 20 μl of each sample/well was loaded on a SDS-PAGE gel and electrophoresed for 20 min at 80 V, then 120 V for 1.5 hr. Gels were then electroblotted to nitrocellulose membranes using a wet-transfer method at 250 mA for 2.5 hr. Membranes were incubated with blocking buffer for 1 hr and washed 3 times with TBST for 5 min. Membranes were then incubated with anti-MAPK7 (anti-ERK5; Cell Signaling Technology, #12950) and anti-3-Actin (Cell Signaling Technology, #3700) monoclonal antibodies diluted in blocking buffer at 4° C. overnight per the manufacturer's recommendations. After washing 3 times, blots were incubated with appropriately labeled secondary antibodies for 1 hr at room temperature and washed again. Fluorescence imaging and quantitation was performed using a LI-COR Odyssey. Results was analyzed using GraphPad Prism 7 software.

HSP90α protein = biological target: T1, HSP90α protein (Homo sapiens, UniProt P07900); experiment: HSP90α-binding FP (BODIPY) assay; conditions: FP competition with BODIPY-labeled RNK04010
T1 construct: purchased BPS Bioscience #50298
Summary of the method: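 Fluorescence polarization measured competition with N-terminal human HSP90α, using either FITC-geldanamycin or BODIPY-labelled triazolone RNK04010 as tracer (5 nM final each). Compounds were tested in 2.5-fold dilutions from 20 μM to 5.2 nM, with incubation at 25 °C for 120 min (FITC) or 300 min (BODIPY).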

ERBB2 = ERBB2 (HER2) flow cytometry protein degradation assay in BT-474 cells; format: cell-based, human; conditions: DC50, BT-474 cells, 24 hr
Procedure: To analyze total ERBB2 expression by flow cytometry, cells were detached with trypsin, washed, counted and treated with 10 μl/10^6 cells PE-conjugated, anti-ERBB2 monoclonal antibody (R&D Systems, #FAB1129P) for 30 min at 25° C. in dark. Cells were then washed, resuspended in 200 μl 1% paraformaldehyde and analyzed by flow cytometry.
% Inhibition=100−(D−B)/(S−B)*100%. • S: Fluorescence intensity of cells with antibody • D: Fluorescence intensity of compound-treated cells with antibody • B: Fluorescence intensity of cells without antibody

[2] = system: MV-4-11 human acute myeloid leukemia; experiment: MV-4-11 CCK-8 proliferation assay; format: cell-based; conditions: Homo sapiens, MV4-11; MV-4-11 cells, 72 hr
Summary of the method: as §1

Chain of MAPK7 (Q13164 whole entry): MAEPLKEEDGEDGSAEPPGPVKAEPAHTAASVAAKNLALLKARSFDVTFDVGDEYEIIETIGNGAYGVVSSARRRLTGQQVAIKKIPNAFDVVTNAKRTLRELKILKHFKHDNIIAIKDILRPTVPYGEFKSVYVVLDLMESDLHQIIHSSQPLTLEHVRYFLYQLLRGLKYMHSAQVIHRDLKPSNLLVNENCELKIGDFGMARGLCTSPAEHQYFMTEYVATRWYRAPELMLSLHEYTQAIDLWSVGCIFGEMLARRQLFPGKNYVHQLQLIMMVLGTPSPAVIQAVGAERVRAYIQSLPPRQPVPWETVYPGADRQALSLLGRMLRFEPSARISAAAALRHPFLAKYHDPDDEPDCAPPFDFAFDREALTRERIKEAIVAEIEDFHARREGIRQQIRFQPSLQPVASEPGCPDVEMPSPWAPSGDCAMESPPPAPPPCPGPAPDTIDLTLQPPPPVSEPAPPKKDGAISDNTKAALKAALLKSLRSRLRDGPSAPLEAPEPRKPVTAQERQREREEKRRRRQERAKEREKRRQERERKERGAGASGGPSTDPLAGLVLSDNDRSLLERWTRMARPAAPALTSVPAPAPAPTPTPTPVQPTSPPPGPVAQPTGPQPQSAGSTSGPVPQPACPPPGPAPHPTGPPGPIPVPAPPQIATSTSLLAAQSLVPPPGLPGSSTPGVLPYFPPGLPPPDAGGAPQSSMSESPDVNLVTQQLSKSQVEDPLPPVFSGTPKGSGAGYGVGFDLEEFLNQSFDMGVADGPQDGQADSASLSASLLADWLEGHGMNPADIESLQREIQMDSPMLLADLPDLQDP

Compound	EC50 [1]	MAPK7 degradation (30 nM) (MAPK7)	MAPK7 degradation (100 nM) (MAPK7)	MAPK7 degradation (1000 nM) (MAPK7)	IC50 (HSP90α protein)	ERBB2 degradation (ERBB2)	EC50 [2]	MAPK7 degradation (300 nM) (MAPK7)
CCOc1cc(N2CCC(C(=O)N3CCC(CN4CCN(Cc5ccc(-n6c(C(=O)NCC(F)(F)F)nnc6-c6cc(C)c(O)cc6O)cc5)CC4)CC3)CC2)ccc1Nc1ncc2c(n1)N(C)c1ccccc1C(=O)N2C [Compound 018, 5-(2,4-dihydroxy-5-methylphenyl)-4-(4-((4-((1-(1-(4-((5,11-dimethyl-6-oxo-6,11-dihydro-5H-benzo[e]pyrimido[5,4-b][1,4]diazepin-2-yl)amino)-3-ethoxyphenyl)piperidine-4-carbonyl)piperidin-4-yl)methyl)piperazin-1-yl)methyl)phenyl)-N-(2,2,2-trifluoroethyl)-4H-1,2,4-triazole-3-carboxamide]	100 to 1000 nM	C (< 33% degradation)	C (< 33% degradation)	A (>66% degradation)	100 to 1000 nM	B (DC50 = 100-1000 nM)	< 100 nM	–
CCOc1cc(N2CCC(C(=O)N3CCC(CN4CCN(Cc5ccc(-n6c(O)nnc6-c6ccc(O)cc6O)cc5)CC4)CC3)CC2)ccc1Nc1ncc2c(n1)N(C)c1ccccc1C(=O)N2C [Compound 021, 2-((4-(4-(4-((4-(4-(3-(2,4-dihydroxyphenyl)-5-hydroxy-4H-1,2,4-triazol-4-yl)benzyl)piperazin-1-yl)methyl)piperidine-1-carbonyl)piperidin-1-yl)-2-ethoxyphenyl)amino)-5,11-dimethyl-5,11-dihydro-6H-benzo[e]pyrimido[5,4-b][1,4]diazepin-6-one]	> 1000 nM	C (< 33% degradation)	C (< 33% degradation)	C (< 33% degradation)	100 to 1000 nM	–	100 to 1000 nM	C (< 33% degradation)
CCOc1cc(N2CCC(C(=O)N3CCC(CN4CCN(Cc5ccc(-n6c(C(=O)NCC(F)(F)F)nnc6-c6cc(CC)c(O)cc6O)cc5)CC4)CC3)CC2)ccc1Nc1ncc2c(n1)N(C)c1ccccc1C(=O)N2C [Compound 022, 4-(4-((4-((1-(1-(4-((5,11-dimethyl-6-oxo-6,11-dihydro-5H-benzo[e]pyrimido[5,4-b][1,4]diazepin-2-yl)amino)-3-ethoxyphenyl)piperidine-4-carbonyl)piperidin-4-yl)methyl)piperazin-1-yl)methyl)phenyl)-5-(5-ethyl-2,4-dihydroxyphenyl)-N-(2,2,2-trifluoroethyl)-4H-1,2,4-triazole-3-carboxamide]	100 to 1000 nM	C (< 33% degradation)	C (< 33% degradation)	A (>66% degradation)	100 to 1000 nM	B (DC50 = 100-1000 nM)	< 100 nM	B (33-66% degradation)
CCOc1cc(N2CCC(C(=O)N3CCN(Cc4ccc(-n5c(O)nnc5-c5cc(C(C)C)c(O)cc5O)cc4)CC3)CC2)ccc1Nc1ncc2c(n1)N(C)c1ccccc1C(=O)N2C.Cl [Compound 043, 2-((4-(4-(4-(4-(3-(2,4-dihydroxy-5-isopropylphenyl)-5-hydroxy-4H-1,2,4-triazol-4-yl)benzyl)piperazine-1-carbonyl)piperidin-1-yl)-2-ethoxyphenyl)amino)-5,11-dimethyl-5,11-dihydro-6H-benzo[e]pyrimido[5,4-b][1,4]diazepin-6-one]	–	C (< 33% degradation)	B (33-66% degradation)	A (>66% degradation)	–	B (DC50 = 100-1000 nM)	–	A (>66% degradation)
CCOc1cc(N2CCC(C(=O)NCCc3ccc(CN4CCC(Cc5ccc(-n6c(C(=O)NCC(F)(F)F)nnc6-c6cc(C(C)C)c(O)cc6O)cc5)CC4)cc3)CC2)ccc1Nc1ncc2c(n1)N(C)c1ccccc1C(=O)N2C [Compound 035, N-(4-((4-(4-(3-(2,4-dihydroxy-5-isopropylphenyl)-5-((2,2,2-trifluoroethyl)carbamoyl)-4H-1,2,4-triazol-4-yl)benzyl)piperidin-1-yl)methyl)phenethyl)-1-(4-((5,11-dimethyl-6-oxo-6,11-dihydro-5H-benzo[e]pyrimido[5,4-b][1,4]diazepin-2-yl)amino)-3-ethoxyphenyl)piperidine-4-carboxamide]	100 to 1000 nM	–	–	–	100 to 1000 nM	B (DC50 = 100-1000 nM)	< 100 nM	–
CCOc1cc(N2CCC(C(=O)NCc3ccc(-n4c(O)nnc4-c4cc(C(C)C)c(O)cc4O)cc3F)CC2)ccc1Nc1ncc2c(n1)N(C)c1ccccc1C(=O)N2C [Compound 036, N-(4-(3-(2,4-dihydroxy-5-isopropylphenyl)-5-hydroxy-4H-1,2,4-triazol-4-yl)-2-fluorobenzyl)-1-(4-((5,11-dimethyl-6-oxo-6,11-dihydro-5H-benzo[e]pyrimido[5,4-b][1,4]diazepin-2-yl)amino)-3-ethoxyphenyl)piperidine-4-carboxamide]	> 1000 nM	C (< 33% degradation)	C (< 33% degradation)	A (>66% degradation)	100 to 1000 nM	B (DC50 = 100-1000 nM)	< 100 nM	B (33-66% degradation)
CCOc1cc(N2CCC(C(=O)N3CCC(CN4CCN(Cc5ccc(-n6c(C(=O)NC(C)C)nnc6-c6cc(CC)c(O)cc6O)cc5)CC4)CC3)CC2)ccc1Nc1ncc2c(n1)N(S(C)(=O)=O)c1ccccc1C(=O)N2C [Compound 098, 4-(4-((4-((1-(1-(3-ethoxy-4-((5-methyl-11-(methylsulfonyl)-6-oxo-6,11-dihydro-5H-benzo[e]pyrimido[5,4-b][1,4]diazepin-2-yl)amino)phenyl)piperidine-4-carbonyl)piperidin-4-yl)methyl)piperazin-1-yl)methyl)phenyl)-5-(5-ethyl-2,4-dihydroxyphenyl)-N-isopropyl-4H-1,2,4-triazole-3-carboxamide]	< 100 nM	–	–	–	< 100 nM	B (DC50 = 100-1000 nM)	< 100 nM	–
CCOc1cc(N2CCC(C(=O)NCCOCCOc3ccc(Nc4ccc(-n5nc(C(F)(F)F)c6c5CC(C)(C)CC6=O)cc4C(N)=O)cc3)CC2)ccc1Nc1ncc2c(n1)N(C)c1ccccc1C(=O)N2C [Compound 065, N-(2-(2-(4-((2-carbamoyl-4-(6,6-dimethyl-4-oxo-3-(trifluoromethyl)-4,5,6,7-tetrahydro-1H-indazol-1-yl)phenyl)amino)phenoxy)ethoxy)ethyl)-1-(4-((5,11-dimethyl-6-oxo-6,11-dihydro-5H-benzo[e]pyrimido[5,4-b][1,4]diazepin-2-yl)amino)-3-ethoxyphenyl)piperidine-4-carboxamide]	> 1000 nM	–	–	–	> 1000 nM	C (DC50 > 1000 nM)	> 1000 nM	–
